Test results: ChEMBL document CHEMBL3991601, “The target landscape of clinical kinase drugs” (Science, 2017)
Activity calls are given as the source filed them.

Assays:
[1] = target: Cyclin-dependent kinase 17 (Homo sapiens, UniProt Q00537)
[2] = target: Eukaryotic peptide chain release factor GTP-binding subunit ERF3B (Homo sapiens, UniProt Q8IYD1)
[3] = target: Serine/threonine-protein kinase 24 (Homo sapiens, UniProt Q9Y6E0)
[4] = target: High affinity nerve growth factor receptor (Homo sapiens, UniProt P04629)
[5] = target: Dual specificity protein kinase CLK4 (Homo sapiens, UniProt Q9HAZ1)
Ephrin type-A receptor 1 = target: T1, Ephrin type-A receptor 1 (Homo sapiens, UniProt P21709)
T1 sequence (P21709 whole entry): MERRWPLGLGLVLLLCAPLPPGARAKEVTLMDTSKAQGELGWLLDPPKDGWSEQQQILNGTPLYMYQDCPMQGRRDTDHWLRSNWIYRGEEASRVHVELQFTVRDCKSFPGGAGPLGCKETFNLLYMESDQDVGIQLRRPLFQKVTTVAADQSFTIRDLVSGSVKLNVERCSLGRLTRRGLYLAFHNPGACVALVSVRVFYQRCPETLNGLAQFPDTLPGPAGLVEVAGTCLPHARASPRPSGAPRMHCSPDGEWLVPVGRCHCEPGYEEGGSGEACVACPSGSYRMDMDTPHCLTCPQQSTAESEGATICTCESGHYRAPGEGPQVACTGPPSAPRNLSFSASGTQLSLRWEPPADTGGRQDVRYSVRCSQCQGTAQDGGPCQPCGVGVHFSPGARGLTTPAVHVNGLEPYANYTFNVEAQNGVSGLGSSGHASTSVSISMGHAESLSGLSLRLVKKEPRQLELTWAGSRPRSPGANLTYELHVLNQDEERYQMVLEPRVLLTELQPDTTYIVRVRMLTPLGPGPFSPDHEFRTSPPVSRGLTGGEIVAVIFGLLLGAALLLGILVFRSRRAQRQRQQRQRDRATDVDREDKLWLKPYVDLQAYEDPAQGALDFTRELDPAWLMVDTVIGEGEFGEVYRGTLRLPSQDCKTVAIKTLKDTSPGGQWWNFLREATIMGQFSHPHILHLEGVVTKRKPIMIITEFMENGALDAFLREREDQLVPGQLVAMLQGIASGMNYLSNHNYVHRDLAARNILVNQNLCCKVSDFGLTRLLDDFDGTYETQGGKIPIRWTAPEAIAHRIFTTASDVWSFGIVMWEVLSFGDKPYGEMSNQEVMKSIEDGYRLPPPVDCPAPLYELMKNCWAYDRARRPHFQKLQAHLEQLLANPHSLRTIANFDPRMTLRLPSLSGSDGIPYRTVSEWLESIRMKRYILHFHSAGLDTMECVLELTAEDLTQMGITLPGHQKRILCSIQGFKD

[6] = target: G protein-coupled receptor kinase 6 (Homo sapiens, UniProt P43250)
[7] = target: T2, Phosphatidylinositol 5-phosphate 4-kinase type-2 alpha (Homo sapiens, UniProt P48426)
T2 sequence (P48426 whole entry): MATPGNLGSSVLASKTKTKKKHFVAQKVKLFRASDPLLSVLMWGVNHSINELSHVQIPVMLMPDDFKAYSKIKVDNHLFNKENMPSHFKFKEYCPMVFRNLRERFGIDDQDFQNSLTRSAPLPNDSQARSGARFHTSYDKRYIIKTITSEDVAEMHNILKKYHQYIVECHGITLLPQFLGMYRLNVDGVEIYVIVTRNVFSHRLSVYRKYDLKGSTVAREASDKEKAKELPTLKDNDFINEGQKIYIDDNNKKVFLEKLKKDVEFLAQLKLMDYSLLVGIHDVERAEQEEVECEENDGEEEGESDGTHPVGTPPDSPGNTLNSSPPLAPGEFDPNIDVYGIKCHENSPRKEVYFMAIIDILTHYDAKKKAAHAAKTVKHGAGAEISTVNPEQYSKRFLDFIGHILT

Myosin-10 = Myosin-10 (Homo sapiens, UniProt P35580)
UMP-CMP kinase = target: T3, UMP-CMP kinase (Homo sapiens, UniProt P30085)
T3 sequence (P30085 whole entry): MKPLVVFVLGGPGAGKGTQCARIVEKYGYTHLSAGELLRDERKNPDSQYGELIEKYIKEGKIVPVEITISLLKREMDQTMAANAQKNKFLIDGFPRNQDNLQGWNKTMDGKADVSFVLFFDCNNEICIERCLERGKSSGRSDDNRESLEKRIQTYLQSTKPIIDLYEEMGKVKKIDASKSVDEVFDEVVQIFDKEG

[8] = target: T4, Dual specificity mitogen-activated protein kinase kinase 4 (Homo sapiens, UniProt P45985)
T4 sequence (P45985 whole entry): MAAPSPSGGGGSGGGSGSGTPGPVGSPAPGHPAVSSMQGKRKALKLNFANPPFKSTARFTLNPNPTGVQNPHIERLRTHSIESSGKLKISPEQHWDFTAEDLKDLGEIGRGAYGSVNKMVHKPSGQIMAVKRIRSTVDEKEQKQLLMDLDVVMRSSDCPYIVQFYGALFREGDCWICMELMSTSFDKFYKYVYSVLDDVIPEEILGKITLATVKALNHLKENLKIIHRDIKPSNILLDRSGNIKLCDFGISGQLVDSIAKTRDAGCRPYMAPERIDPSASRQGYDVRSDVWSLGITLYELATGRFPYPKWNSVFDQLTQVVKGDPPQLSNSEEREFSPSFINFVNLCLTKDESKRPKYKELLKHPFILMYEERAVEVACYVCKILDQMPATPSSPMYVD

[9] = target: Tyrosine-protein kinase Fgr (Homo sapiens, UniProt P09769)
[10] = target: Serine/threonine-protein kinase pim-2 (Homo sapiens, UniProt Q9P1W9)
[11] = target: MAP kinase-activated protein kinase 3 (Homo sapiens, UniProt Q16644)
[12] = target: Serine/threonine-protein kinase 38 (Homo sapiens, UniProt Q15208)
Also: in the data inactive means no Kd found up to 30 µM.

Chain of High affinity nerve growth factor receptor (P04629 whole entry): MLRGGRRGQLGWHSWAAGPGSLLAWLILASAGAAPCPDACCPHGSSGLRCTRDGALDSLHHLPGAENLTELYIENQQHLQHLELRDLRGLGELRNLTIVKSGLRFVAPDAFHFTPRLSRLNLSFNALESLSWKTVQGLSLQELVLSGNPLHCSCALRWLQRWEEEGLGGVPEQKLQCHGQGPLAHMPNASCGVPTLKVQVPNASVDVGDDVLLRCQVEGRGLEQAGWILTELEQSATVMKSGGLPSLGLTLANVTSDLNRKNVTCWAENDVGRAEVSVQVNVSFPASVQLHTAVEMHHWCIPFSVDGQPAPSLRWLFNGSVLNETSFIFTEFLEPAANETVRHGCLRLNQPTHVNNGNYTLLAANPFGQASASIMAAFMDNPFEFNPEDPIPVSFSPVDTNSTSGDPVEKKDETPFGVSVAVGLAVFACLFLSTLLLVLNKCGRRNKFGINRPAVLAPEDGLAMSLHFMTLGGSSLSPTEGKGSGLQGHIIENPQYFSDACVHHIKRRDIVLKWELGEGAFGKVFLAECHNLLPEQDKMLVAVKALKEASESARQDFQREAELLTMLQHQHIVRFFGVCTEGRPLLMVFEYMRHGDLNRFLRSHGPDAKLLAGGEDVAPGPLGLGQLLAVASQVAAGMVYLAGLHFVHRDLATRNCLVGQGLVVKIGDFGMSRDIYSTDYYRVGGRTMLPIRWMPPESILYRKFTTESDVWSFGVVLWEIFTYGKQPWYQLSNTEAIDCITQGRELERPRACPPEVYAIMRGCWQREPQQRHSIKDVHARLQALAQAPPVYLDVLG
Chain of MAP kinase-activated protein kinase 3 (Q16644 whole entry): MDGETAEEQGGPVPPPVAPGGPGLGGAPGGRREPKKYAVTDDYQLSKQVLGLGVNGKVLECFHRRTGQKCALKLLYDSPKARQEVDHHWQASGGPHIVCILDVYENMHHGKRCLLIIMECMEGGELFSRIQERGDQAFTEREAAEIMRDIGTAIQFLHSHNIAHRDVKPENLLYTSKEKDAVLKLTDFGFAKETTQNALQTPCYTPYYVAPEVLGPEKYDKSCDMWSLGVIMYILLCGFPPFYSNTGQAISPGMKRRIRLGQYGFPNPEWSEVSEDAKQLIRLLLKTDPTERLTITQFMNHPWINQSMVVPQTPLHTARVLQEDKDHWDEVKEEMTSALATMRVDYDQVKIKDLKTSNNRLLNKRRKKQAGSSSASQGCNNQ
Chain of Cyclin-dependent kinase 17 (Q00537 whole entry): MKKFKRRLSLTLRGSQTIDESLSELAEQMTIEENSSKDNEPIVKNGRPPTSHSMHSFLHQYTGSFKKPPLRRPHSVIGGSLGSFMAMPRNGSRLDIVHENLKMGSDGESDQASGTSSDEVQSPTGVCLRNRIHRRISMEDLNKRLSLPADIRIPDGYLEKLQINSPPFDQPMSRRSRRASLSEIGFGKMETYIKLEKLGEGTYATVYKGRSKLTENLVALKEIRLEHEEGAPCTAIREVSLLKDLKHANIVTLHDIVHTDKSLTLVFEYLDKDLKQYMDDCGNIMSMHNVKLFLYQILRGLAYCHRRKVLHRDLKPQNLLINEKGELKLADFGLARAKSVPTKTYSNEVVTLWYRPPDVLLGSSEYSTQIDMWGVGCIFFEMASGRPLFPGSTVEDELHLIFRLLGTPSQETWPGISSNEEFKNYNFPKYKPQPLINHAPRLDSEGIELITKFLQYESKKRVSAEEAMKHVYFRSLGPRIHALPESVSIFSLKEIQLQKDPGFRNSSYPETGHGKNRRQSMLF
Chain of Serine/threonine-protein kinase 38 (Q15208 whole entry): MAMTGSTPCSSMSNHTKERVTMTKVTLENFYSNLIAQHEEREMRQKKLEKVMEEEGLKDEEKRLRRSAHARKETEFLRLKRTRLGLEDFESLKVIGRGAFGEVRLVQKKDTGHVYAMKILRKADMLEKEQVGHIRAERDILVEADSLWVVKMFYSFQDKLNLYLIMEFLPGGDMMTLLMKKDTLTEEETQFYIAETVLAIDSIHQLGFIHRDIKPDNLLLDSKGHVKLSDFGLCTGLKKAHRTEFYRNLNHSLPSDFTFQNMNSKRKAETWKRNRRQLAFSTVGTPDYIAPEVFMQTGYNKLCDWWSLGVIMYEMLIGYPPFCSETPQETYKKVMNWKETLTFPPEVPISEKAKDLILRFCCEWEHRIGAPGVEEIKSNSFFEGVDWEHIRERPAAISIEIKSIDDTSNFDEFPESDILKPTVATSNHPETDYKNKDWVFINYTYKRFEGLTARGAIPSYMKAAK
Chain of Serine/threonine-protein kinase pim-2 (Q9P1W9 whole entry): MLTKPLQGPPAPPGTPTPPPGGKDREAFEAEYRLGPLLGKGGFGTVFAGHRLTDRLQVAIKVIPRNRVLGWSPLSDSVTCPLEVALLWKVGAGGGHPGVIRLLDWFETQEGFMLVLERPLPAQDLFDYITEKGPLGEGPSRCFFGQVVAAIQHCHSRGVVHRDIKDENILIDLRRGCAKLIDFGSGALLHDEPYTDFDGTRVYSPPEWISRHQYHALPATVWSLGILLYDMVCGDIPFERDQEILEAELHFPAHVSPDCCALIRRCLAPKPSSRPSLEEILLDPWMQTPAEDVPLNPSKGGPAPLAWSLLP
Chain of G protein-coupled receptor kinase 6 (P43250 whole entry): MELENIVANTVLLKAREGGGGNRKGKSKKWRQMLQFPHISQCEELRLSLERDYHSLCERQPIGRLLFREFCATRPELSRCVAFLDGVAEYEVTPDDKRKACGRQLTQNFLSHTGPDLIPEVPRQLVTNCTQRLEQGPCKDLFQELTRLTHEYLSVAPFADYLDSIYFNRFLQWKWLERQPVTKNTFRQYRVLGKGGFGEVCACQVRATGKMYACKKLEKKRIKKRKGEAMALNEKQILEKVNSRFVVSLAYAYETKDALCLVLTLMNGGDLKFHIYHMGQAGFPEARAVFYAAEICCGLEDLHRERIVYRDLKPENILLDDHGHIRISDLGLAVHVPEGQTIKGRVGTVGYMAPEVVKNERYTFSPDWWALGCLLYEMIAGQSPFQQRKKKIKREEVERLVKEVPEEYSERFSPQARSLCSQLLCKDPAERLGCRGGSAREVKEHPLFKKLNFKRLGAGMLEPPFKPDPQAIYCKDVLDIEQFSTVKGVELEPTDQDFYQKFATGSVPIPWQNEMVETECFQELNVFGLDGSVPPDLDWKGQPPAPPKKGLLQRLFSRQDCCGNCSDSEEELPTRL
Chain of Dual specificity protein kinase CLK4 (Q9HAZ1 whole entry): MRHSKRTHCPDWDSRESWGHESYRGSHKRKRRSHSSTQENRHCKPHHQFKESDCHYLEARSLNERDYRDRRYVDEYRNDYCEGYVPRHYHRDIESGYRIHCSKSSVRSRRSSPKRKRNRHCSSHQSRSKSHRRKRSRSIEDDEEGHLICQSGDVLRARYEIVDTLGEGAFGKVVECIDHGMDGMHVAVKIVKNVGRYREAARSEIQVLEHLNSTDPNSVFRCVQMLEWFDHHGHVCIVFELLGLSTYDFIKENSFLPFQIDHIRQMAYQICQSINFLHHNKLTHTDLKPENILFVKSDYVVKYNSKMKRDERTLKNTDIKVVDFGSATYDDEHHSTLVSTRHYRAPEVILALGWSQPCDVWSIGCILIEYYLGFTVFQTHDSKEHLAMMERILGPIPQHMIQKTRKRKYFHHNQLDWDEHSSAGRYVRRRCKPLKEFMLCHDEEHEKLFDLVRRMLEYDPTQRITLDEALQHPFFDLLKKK
Chain of Serine/threonine-protein kinase 24 (Q9Y6E0 whole entry): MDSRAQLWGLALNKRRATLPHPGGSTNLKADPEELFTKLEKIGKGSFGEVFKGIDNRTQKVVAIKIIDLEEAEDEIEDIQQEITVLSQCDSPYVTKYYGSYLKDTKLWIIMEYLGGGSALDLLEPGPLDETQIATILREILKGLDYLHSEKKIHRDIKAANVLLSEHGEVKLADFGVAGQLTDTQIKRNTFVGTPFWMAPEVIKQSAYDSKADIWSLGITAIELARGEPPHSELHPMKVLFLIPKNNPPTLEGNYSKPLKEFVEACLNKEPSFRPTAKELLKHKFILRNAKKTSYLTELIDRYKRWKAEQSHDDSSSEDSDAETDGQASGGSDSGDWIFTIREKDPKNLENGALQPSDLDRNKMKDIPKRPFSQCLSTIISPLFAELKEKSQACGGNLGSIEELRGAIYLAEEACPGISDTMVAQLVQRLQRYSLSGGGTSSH
Chain of Tyrosine-protein kinase Fgr (P09769 whole entry): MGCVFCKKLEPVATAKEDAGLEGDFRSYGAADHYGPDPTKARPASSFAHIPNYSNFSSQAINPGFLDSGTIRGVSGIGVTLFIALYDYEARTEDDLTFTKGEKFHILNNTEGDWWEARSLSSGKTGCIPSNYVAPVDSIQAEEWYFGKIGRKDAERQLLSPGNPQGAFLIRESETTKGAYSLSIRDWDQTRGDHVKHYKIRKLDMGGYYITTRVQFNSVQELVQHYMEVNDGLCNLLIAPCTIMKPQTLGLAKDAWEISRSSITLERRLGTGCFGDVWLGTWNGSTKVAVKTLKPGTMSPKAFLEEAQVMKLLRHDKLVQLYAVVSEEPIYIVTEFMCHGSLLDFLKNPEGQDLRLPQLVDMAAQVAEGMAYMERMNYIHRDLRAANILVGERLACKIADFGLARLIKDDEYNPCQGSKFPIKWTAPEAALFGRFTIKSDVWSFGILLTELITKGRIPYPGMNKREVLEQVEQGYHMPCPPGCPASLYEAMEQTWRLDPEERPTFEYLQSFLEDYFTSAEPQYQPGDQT

Kd [1]	Kd [2]	Kd [3]	Kd [4]	Kd [5]	Kd (Ephrin type-A receptor 1)	Kd [6]	Kd [7]	Kd (Myosin-10)	Kd (UMP-CMP kinase)	Kd [8]	Kd [9]	Kd [10]	Kd [11]	Kd [12]	SMILES
> 30 µM (inactive)	> 30 µM (inactive)	> 30 µM (inactive)	> 30 µM (inactive)	> 30 µM (inactive)	> 30 µM (inactive)	> 30 µM (inactive)									O=c1sn(-c2cccc3ccccc23)c(=O)n1Cc1ccccc1 [TIDEGLUSIB]
> 30 µM (inactive)			> 30 µM (inactive)	> 30 µM (inactive)	> 30 µM (inactive)	> 30 µM (inactive)	> 30 µM (inactive)	> 30 µM (inactive)			> 30 µM (inactive)	> 30 µM (inactive)			Cn1cc(-c2ccc3nnc(C(F)(F)c4ccc5ncccc5c4)n3n2)cn1 [JNJ-38877605]
> 30 µM (inactive)			> 30 µM (inactive)	> 30 µM (inactive)	> 30 µM (inactive)	> 30 µM (inactive)	> 30 µM (inactive)		> 30 µM (inactive)				> 30 µM (inactive)	> 30 µM (inactive)	C[C@@H]1CN(Cc2ccc(F)cc2)[C@@H](C)CN1C(=O)c1cc2c(C(=O)C(=O)N(C)C)cn(C)c2cc1Cl [TALMAPIMOD]
> 30 µM (inactive)	> 30 µM (inactive)		> 30 µM (inactive)		> 30 µM (inactive)		> 30 µM (inactive)	> 30 µM (inactive)				> 30 µM (inactive)		> 30 µM (inactive)	CNC(=O)c1ccc(-c2cnc3ncc(Cc4ccc5ncccc5c4)n3n2)cc1F [CAPMATINIB]
0.007 µM (active)		> 30 µM (inactive)					> 30 µM (inactive)	> 30 µM (inactive)	> 30 µM (inactive)	> 30 µM (inactive)	> 30 µM (inactive)				Cc1nc(N)sc1-c1ccnc(Nc2ccc(N3CCOCC3)cc2)n1 [CYC-116]
	> 30 µM (inactive)	> 30 µM (inactive)	> 30 µM (inactive)				> 30 µM (inactive)	> 30 µM (inactive)	> 30 µM (inactive)						N[C@@H]1CCCN(c2c(/C=C3\SC(=O)NC3=O)cccc2-c2ccccc2)C1
> 30 µM (inactive)					> 30 µM (inactive)						> 30 µM (inactive)			> 30 µM (inactive)	CNC(=O)c1ccc(C)c(-n2c(C)cc(OCc3ccc(F)cc3F)c(Br)c2=O)c1 [PH-797804]
		> 30 µM (inactive)				> 30 µM (inactive)		> 30 µM (inactive)	> 30 µM (inactive)	> 30 µM (inactive)				> 30 µM (inactive)	Cc1cc(Nc2cc(N3CCN(C)CC3)nc(/C=C/c3ccccc3)n2)n[nH]1 [ENMD-2076]
0.719 µM (active)		> 30 µM (inactive)	> 30 µM (inactive)	> 30 µM (inactive)	0.007 µM	> 30 µM (inactive)	> 30 µM (inactive)	> 30 µM (inactive)	> 30 µM (inactive)		> 30 µM (inactive)	> 30 µM (inactive)			CNC(=O)c1cc(Oc2ccc(NC(=O)Nc3ccc(Cl)c(C(F)(F)F)c3)c(F)c2)ccn1 [REGORAFENIB]
> 30 µM (inactive)	> 30 µM (inactive)	> 30 µM (inactive)		> 30 µM (inactive)	> 30 µM (inactive)	> 30 µM (inactive)		> 30 µM (inactive)	> 30 µM (inactive)				> 30 µM (inactive)		CCS(=O)(=O)N1CC(CC#N)(n2cc(-c3ncnc4[nH]ccc34)cn2)C1 [BARICITINIB]
		> 30 µM (inactive)	> 30 µM (inactive)	> 30 µM (inactive)	> 30 µM (inactive)						> 30 µM (inactive)		> 30 µM (inactive)	> 30 µM (inactive)	O=C(Nc1ccc(-c2ccnc(Nc3ccc(N4CCOCC4)cc3)n2)cc1)C1CCCN1 (stereo not drawn) [XL-019]
> 30 µM (inactive)		> 30 µM (inactive)	> 30 µM (inactive)	> 30 µM (inactive)	> 30 µM (inactive)	> 30 µM (inactive)	> 30 µM (inactive)	> 30 µM (inactive)			> 30 µM (inactive)	> 30 µM (inactive)		> 30 µM (inactive)	COc1cc(OC)c(/C=C/S(=O)(=O)Cc2ccc(OC)c(NCC(=O)O)c2)c(OC)c1 [RIGOSERTIB]
> 30 µM (inactive)		> 30 µM (inactive)	> 30 µM (inactive)	> 30 µM (inactive)	> 30 µM (inactive)	> 30 µM (inactive)	> 30 µM (inactive)	> 30 µM (inactive)	> 30 µM (inactive)		> 30 µM (inactive)				CC[C@@H]1C(=O)N(C)c2cnc(Nc3ccc(C(=O)N[C@H]4CC[C@H](N5CCN(CC6CC6)CC5)CC4)cc3OC)nc2N1C(C)C [VOLASERTIB]
> 30 µM (inactive)		> 30 µM (inactive)	> 30 µM (inactive)	> 30 µM (inactive)	> 30 µM (inactive)	> 30 µM (inactive)		> 30 µM (inactive)	> 30 µM (inactive)	> 30 µM (inactive)				> 30 µM (inactive)	Cc1cc([C@@H](C)Nc2ccccc2C(=O)O)c2nc(N3CCOCC3)cc(=O)n2c1 [AZD-6482]
	> 30 µM (inactive)	> 30 µM (inactive)	> 30 µM (inactive)		> 30 µM (inactive)		> 30 µM (inactive)	> 30 µM (inactive)	> 30 µM (inactive)					> 30 µM (inactive)	CCn1c(=O)c(-c2cc[nH]n2)cc2c(C)nc(N)nc21 [VOXTALISIB]

SMILES	Kd [1]	Kd [2]	Kd [3]	Kd [4]	Kd [5]	Kd (Ephrin type-A receptor 1)	Kd [6]	Kd [7]	Kd (Myosin-10)	Kd (UMP-CMP kinase)	Kd [8]	Kd [9]	Kd [10]	Kd [11]	Kd [12]
O=C(Nc1cccc(Cl)c1)Nc1ncc(CCNc2ncnc3ccsc23)s1 [SNS-314]		> 30 µM (inactive)	> 30 µM (inactive)			> 30 µM (inactive)	> 30 µM (inactive)	> 30 µM (inactive)	> 30 µM (inactive)	> 30 µM (inactive)	> 30 µM (inactive)				
Cc1ccc(-n2nc(C(C)(C)C)cc2NC(=O)NCc2cc(F)ccc2Oc2ccc3c(cnn3CCO)c2)cc1 [PEXMETINIB]	0.402 µM (active)		> 30 µM (inactive)	3.13 µM (active)	> 30 µM (inactive)	2.64 µM (active)	> 30 µM (inactive)	> 30 µM (inactive)	> 30 µM (inactive)	> 30 µM (inactive)	> 30 µM (inactive)		> 30 µM (inactive)	> 30 µM (inactive)	> 30 µM (inactive)
